Test results: the NIST ThermoML archive (doi:10.1016/j.fluid.2016.02.009)
± gives the expanded uncertainty stated by the source.

Conditions: Liquid, Vibrating tube method

## CC(C)CCOCCC(C)C [di-(3-methylbutyl) ether]
308.15 K, 35000 kPa
  mass density: 790.52 ± 0.52 kg/m3
308.15 K, 40000 kPa
  mass density: 793.86 ± 0.55 kg/m3
308.15 K, 45000 kPa
  mass density: 797.07 ± 0.59 kg/m3
308.15 K, 50000 kPa
  mass density: 800.19 ± 0.62 kg/m3
308.15 K, 55000 kPa
  mass density: 803.2 ± 0.65 kg/m3
308.15 K, 60000 kPa
  mass density: 806.11 ± 0.69 kg/m3
308.15 K, 65000 kPa
  mass density: 808.94 ± 0.72 kg/m3
313.15 K, 100 kPa
  mass density: 758.37 ± 0.3 kg/m3
313.15 K, 5000 kPa
  mass density: 763.24 ± 0.33 kg/m3
313.15 K, 10000 kPa
  mass density: 767.74 ± 0.36 kg/m3
313.15 K, 15000 kPa
  mass density: 772.01 ± 0.39 kg/m3
313.15 K, 20000 kPa
  mass density: 776.05 ± 0.42 kg/m3
313.15 K, 25000 kPa
  mass density: 779.9 ± 0.46 kg/m3
313.15 K, 30000 kPa
  mass density: 783.59 ± 0.49 kg/m3
313.15 K, 35000 kPa
  mass density: 787.12 ± 0.52 kg/m3
313.15 K, 40000 kPa
  mass density: 790.53 ± 0.56 kg/m3
313.15 K, 45000 kPa
  mass density: 793.81 ± 0.59 kg/m3
313.15 K, 50000 kPa
  mass density: 796.97 ± 0.63 kg/m3
313.15 K, 55000 kPa
  mass density: 800.03 ± 0.66 kg/m3
313.15 K, 60000 kPa
  mass density: 803 ± 0.69 kg/m3
313.15 K, 65000 kPa
  mass density: 805.88 ± 0.72 kg/m3
318.15 K, 100 kPa
  mass density: 754.27 ± 0.3 kg/m3
318.15 K, 5000 kPa
  mass density: 759.27 ± 0.33 kg/m3
318.15 K, 10000 kPa
  mass density: 763.91 ± 0.36 kg/m3
318.15 K, 15000 kPa
  mass density: 768.28 ± 0.39 kg/m3
318.15 K, 20000 kPa
  mass density: 772.42 ± 0.43 kg/m3
318.15 K, 25000 kPa
  mass density: 776.38 ± 0.46 kg/m3
318.15 K, 30000 kPa
  mass density: 780.14 ± 0.49 kg/m3
318.15 K, 35000 kPa
  mass density: 783.75 ± 0.53 kg/m3
318.15 K, 40000 kPa
  mass density: 787.22 ± 0.57 kg/m3
318.15 K, 45000 kPa
  mass density: 790.57 ± 0.6 kg/m3
318.15 K, 50000 kPa
  mass density: 793.81 ± 0.63 kg/m3
318.15 K, 55000 kPa
  mass density: 796.91 ± 0.67 kg/m3
318.15 K, 60000 kPa
  mass density: 799.93 ± 0.7 kg/m3
318.15 K, 65000 kPa
  mass density: 802.85 ± 0.73 kg/m3
323.15 K, 100 kPa
  mass density: 750.16 ± 0.3 kg/m3
323.15 K, 5000 kPa
  mass density: 755.32 ± 0.33 kg/m3
323.15 K, 10000 kPa
  mass density: 760.1 ± 0.36 kg/m3
323.15 K, 15000 kPa
  mass density: 764.59 ± 0.4 kg/m3
323.15 K, 20000 kPa
  mass density: 768.84 ± 0.43 kg/m3
323.15 K, 25000 kPa
  mass density: 772.87 ± 0.46 kg/m3
323.15 K, 30000 kPa
  mass density: 776.74 ± 0.5 kg/m3
323.15 K, 35000 kPa
  mass density: 780.43 ± 0.53 kg/m3
323.15 K, 40000 kPa
  mass density: 783.97 ± 0.57 kg/m3
323.15 K, 45000 kPa
  mass density: 787.37 ± 0.61 kg/m3
323.15 K, 50000 kPa
  mass density: 790.66 ± 0.64 kg/m3
323.15 K, 55000 kPa
  mass density: 793.83 ± 0.67 kg/m3
323.15 K, 60000 kPa
  mass density: 796.89 ± 0.71 kg/m3
323.15 K, 65000 kPa
  mass density: 799.86 ± 0.74 kg/m3
328.15 K, 100 kPa
  mass density: 746.03 ± 0.3 kg/m3
328.15 K, 5000 kPa
  mass density: 751.35 ± 0.33 kg/m3
328.15 K, 10000 kPa
  mass density: 756.23 ± 0.36 kg/m3
328.15 K, 15000 kPa
  mass density: 760.85 ± 0.4 kg/m3
328.15 K, 20000 kPa
  mass density: 765.22 ± 0.43 kg/m3
328.15 K, 25000 kPa
  mass density: 769.33 ± 0.47 kg/m3
328.15 K, 30000 kPa
  mass density: 773.28 ± 0.5 kg/m3
328.15 K, 35000 kPa
  mass density: 777.06 ± 0.54 kg/m3
328.15 K, 40000 kPa
  mass density: 780.66 ± 0.58 kg/m3
328.15 K, 45000 kPa
  mass density: 784.15 ± 0.61 kg/m3
328.15 K, 50000 kPa
  mass density: 787.49 ± 0.65 kg/m3
328.15 K, 55000 kPa
  mass density: 790.7 ± 0.68 kg/m3
328.15 K, 60000 kPa
  mass density: 793.83 ± 0.71 kg/m3
328.15 K, 65000 kPa
  mass density: 796.84 ± 0.75 kg/m3
333.15 K, 100 kPa
  mass density: 741.88 ± 0.3 kg/m3
333.15 K, 5000 kPa
  mass density: 747.34 ± 0.33 kg/m3
333.15 K, 10000 kPa
  mass density: 752.39 ± 0.37 kg/m3
333.15 K, 15000 kPa
  mass density: 757.12 ± 0.4 kg/m3
333.15 K, 20000 kPa
  mass density: 761.58 ± 0.43 kg/m3
333.15 K, 25000 kPa
  mass density: 765.79 ± 0.47 kg/m3
333.15 K, 30000 kPa
  mass density: 769.84 ± 0.5 kg/m3
333.15 K, 35000 kPa
  mass density: 773.7 ± 0.54 kg/m3
333.15 K, 40000 kPa
  mass density: 777.39 ± 0.58 kg/m3
333.15 K, 45000 kPa
  mass density: 780.93 ± 0.62 kg/m3
333.15 K, 50000 kPa
  mass density: 784.33 ± 0.65 kg/m3
333.15 K, 55000 kPa
  mass density: 787.59 ± 0.69 kg/m3
333.15 K, 60000 kPa
  mass density: 790.76 ± 0.72 kg/m3
333.15 K, 65000 kPa
  mass density: 793.83 ± 0.75 kg/m3
